Assay results as given in patent publication US20090053152A1, “SKIN COSMETIC” (KAO Corporation, priority 2006, published 2009).
Converted amounts (≈) assume the structure as drawn. Read-outs that look alike come from different tables or passages of the source.

Tests used:
[1] = Solubility test in water or organic solvent; type: physicochemical; conditions: room temperature, visually observed; for Solubility in Ethyl acetate: 0.1 g sample in 1 ml ethyl acetate; for solubility: thermodynamic from solid
Experimental: 0.1 g of each sample was weighed and 1 ml of water or an organic solvent was accurately added thereto. After agitating the mixture with a test tube mixer (VORTEX), it was allowed to stand at room temperature and the state was visually observed. Solubility was evaluated as “o”, when a sample was completely dissolved. Solubility was evaluated as “Δ”, when a sample was approximately half dissolved. Solubility was evaluated as “x”, when a sample was almost not dissolved. Propylbiphenol that was a starting material for each Preparation Example was also evaluated as Comparative Example 1.

B16 melanoma cells = experiment: Melanogenesis inhibition test; type: cell-based; conditions: for IC50: Mus musculus; for Melanogenesis inhibition rate (%, vs control): 72 hours culture, melanin per protein
Experimental: B16 melanoma cells were plated at 10^4 cells/well in a MEM medium containing 10 vol % fetal bovine serum in a 12-well plate and were precultured for 24 hours. After the preculture, the medium was replaced with a medium obtained by adding a predetermined concentration of the sample compound to the above medium to which is added 2 mmol/L of theophylline, and culture was carried out for 72 hours. […] Further, the cells were dissolved in a 1 mol/L aqueous sodium hydroxide solution containing 10 vol % dimethyl sulfoxide. The OD475 was measured and the value was used as an indicator of the amount of melanin. Thereafter, the amount of total protein in the solution was determined using Coomasie Plus Protein Assay Reagent Kit (manufactured by PIERCE) to calculate the amount of melanin per amount of protein. The melanogenesis inhibition rate (%) relative to a control was determined with a case where the sample compound was not added as the control.
Melanogenesis inhibition curves of the monoacetyl and diacetyl derivatives of propylbiphenol of Preparation Example 1 according to the present invention were made based on the results of the melanogenesis inhibition test (FIGS. 6 and 7). IC50 values, which is the concentration values supposed to inhibit 50% of melanogenesis, were determined from the inhibition curves.

[2] = 0.1 g sample in 1 ml water, read-out: Solubility in Water
[3] = B16, determined from melanogenesis inhibition curves, read-out: IC50 value (concentration supposed to inhibit 50% of melanogenesis)
[4] = addition concentration 10 μg/ml

Solubility in Ethyl acetate [1]	solubility [1, 2] [mg/mL]	IC50 (B16 melanoma cells; [3]) [µg/mL]	Solubility in Methanol ([1]; 0.1 g sample in 1 ml methanol)	Solubility in n-hexane ([1]; 0.1 g sample in 1 ml n-hexane)	Compound	solubility ([1]; organic solvent or mixture, 0.1 g sample in 1 ml methanol, read-out: Solubility in Methanol) [mg/mL]	solubility ([1]; organic solvent or mixture, 0.1 g sample in 1 ml n-hexane, read-out: Solubility in n-hexane) [mg/mL]	IC50 (B16 melanoma cells; B16, read-out: IC50 value (concentration supposed to inhibit 50% of melanogenesis)) [µg/mL]	Melanogenesis inhibition rate (%, vs control) (B16 melanoma cells; addition concentration 1 μg/ml) [%]	Melanogenesis inhibition rate (%, vs control) (B16 melanoma cells; addition concentration 3 μg/ml) [%]	Melanogenesis inhibition rate (%, vs control) (B16 melanoma cells; [4]) [%]	Melanogenesis inhibition rate (%, vs control) (B16 melanoma cells; addition concentration 30 μg/ml) [%]
–	–	20 (≈ 0.0735 mM)	–	–	OC[C@H]1O[C@@H](Oc2ccc(O)cc2)[C@H](O)[C@@H](O)[C@@H]1O [arbutin, reference compound]	–	–	–	–	–	–	–
∘	< 25	–	∘	∘	CCCCCCCC(=O)Oc1ccc(CCC)cc1-c1cc(CCC)ccc1O [Monooctanoyl derivative]	–	–	–	–	–	–	–
∘	< 25	7 (≈ 0.0224 mM)	∘	∘	CCCc1ccc(O)c(-c2cc(CCC)ccc2OC(C)=O)c1 [Monoacetyl derivative]	–	–	–	−11.6	−9.8	100	–
∘	< 25	6.5 (≈ 0.0183 mM)	∘	∘	CCCc1ccc(OC(C)=O)c(-c2cc(CCC)ccc2OC(C)=O)c1 [Diacetyl derivative]	–	–	–	−15.5	−16.6	72.0	83.8
∘	< 25	–	∘	∘	CCCc1ccc(OC(=O)CC)c(-c2cc(CCC)ccc2OC(=O)CC)c1 [Dipropionyl derivative]	–	–	–	–	–	–	–

Compound	Solubility in Ethyl acetate [1]	solubility [1, 2] [mg/mL]	IC50 (B16 melanoma cells; [3]) [µg/mL]	Solubility in Methanol ([1]; 0.1 g sample in 1 ml methanol)	Solubility in n-hexane ([1]; 0.1 g sample in 1 ml n-hexane)	solubility ([1]; organic solvent or mixture, 0.1 g sample in 1 ml methanol, read-out: Solubility in Methanol) [mg/mL]	solubility ([1]; organic solvent or mixture, 0.1 g sample in 1 ml n-hexane, read-out: Solubility in n-hexane) [mg/mL]	IC50 (B16 melanoma cells; B16, read-out: IC50 value (concentration supposed to inhibit 50% of melanogenesis)) [µg/mL]	Melanogenesis inhibition rate (%, vs control) (B16 melanoma cells; addition concentration 1 μg/ml) [%]	Melanogenesis inhibition rate (%, vs control) (B16 melanoma cells; addition concentration 3 μg/ml) [%]	Melanogenesis inhibition rate (%, vs control) (B16 melanoma cells; [4]) [%]	Melanogenesis inhibition rate (%, vs control) (B16 melanoma cells; addition concentration 30 μg/ml) [%]
CCCc1ccc(O)c(-c2cc(CCC)ccc2O)c1 [Propylbiphenol, 2,2′-dihydroxy-5,5′-di-n-propyl-biphenyl, reference compound]	∘	< 25	–	–	–	25 to 100 (≈ 92.5 to 370 mM)	< 25	4 (≈ 0.0148 mM)	–	–	–	–
